Read-outs that look alike come from different tables or passages of the source.
Columns and labels:
[1] = system: Respiratory Syncytial Virus (RSV) long strain; experiment: microbe, parasite or virus in culture; assay type: cell-based; conditions: human respiratory syncytial virus, Tables A and B list compounds by EC50 band
Procedure, shortened: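 HEp-2 cells infected with 100 TCID50 virus per well, compounds in duplicate, 9-point 1/3 dilutions from 100 μM or 1 μM, 1% DMSO. After 5 days at 37 °C, cell viability (CPE protection) read by CCK-8 absorbance at 450 nm, 630 nm background.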

[2] = Cytotoxicity Determination (CCK-8, without addition of virus); assay type: cell-based; conditions: human
Procedure, shortened: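 HEp-2 cells were seeded at 1,500 cells/well one day before compound addition. Compounds were tested without virus in duplicate over 7 points from 100 μM in 1/2 steps, with 1% final DMSO, 5 days at 37 °C, 5% CO2. Viability was read by CCK-8 after 3-4 hours.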

recombinant RSV complex = recombinant RSV complex (Human respiratory syncytial virus A, UniProt P28887); experiment: RSV Polymerase Inhibition Assay; assay type: biochemical
Sequence of recombinant RSV complex (P28887 whole entry): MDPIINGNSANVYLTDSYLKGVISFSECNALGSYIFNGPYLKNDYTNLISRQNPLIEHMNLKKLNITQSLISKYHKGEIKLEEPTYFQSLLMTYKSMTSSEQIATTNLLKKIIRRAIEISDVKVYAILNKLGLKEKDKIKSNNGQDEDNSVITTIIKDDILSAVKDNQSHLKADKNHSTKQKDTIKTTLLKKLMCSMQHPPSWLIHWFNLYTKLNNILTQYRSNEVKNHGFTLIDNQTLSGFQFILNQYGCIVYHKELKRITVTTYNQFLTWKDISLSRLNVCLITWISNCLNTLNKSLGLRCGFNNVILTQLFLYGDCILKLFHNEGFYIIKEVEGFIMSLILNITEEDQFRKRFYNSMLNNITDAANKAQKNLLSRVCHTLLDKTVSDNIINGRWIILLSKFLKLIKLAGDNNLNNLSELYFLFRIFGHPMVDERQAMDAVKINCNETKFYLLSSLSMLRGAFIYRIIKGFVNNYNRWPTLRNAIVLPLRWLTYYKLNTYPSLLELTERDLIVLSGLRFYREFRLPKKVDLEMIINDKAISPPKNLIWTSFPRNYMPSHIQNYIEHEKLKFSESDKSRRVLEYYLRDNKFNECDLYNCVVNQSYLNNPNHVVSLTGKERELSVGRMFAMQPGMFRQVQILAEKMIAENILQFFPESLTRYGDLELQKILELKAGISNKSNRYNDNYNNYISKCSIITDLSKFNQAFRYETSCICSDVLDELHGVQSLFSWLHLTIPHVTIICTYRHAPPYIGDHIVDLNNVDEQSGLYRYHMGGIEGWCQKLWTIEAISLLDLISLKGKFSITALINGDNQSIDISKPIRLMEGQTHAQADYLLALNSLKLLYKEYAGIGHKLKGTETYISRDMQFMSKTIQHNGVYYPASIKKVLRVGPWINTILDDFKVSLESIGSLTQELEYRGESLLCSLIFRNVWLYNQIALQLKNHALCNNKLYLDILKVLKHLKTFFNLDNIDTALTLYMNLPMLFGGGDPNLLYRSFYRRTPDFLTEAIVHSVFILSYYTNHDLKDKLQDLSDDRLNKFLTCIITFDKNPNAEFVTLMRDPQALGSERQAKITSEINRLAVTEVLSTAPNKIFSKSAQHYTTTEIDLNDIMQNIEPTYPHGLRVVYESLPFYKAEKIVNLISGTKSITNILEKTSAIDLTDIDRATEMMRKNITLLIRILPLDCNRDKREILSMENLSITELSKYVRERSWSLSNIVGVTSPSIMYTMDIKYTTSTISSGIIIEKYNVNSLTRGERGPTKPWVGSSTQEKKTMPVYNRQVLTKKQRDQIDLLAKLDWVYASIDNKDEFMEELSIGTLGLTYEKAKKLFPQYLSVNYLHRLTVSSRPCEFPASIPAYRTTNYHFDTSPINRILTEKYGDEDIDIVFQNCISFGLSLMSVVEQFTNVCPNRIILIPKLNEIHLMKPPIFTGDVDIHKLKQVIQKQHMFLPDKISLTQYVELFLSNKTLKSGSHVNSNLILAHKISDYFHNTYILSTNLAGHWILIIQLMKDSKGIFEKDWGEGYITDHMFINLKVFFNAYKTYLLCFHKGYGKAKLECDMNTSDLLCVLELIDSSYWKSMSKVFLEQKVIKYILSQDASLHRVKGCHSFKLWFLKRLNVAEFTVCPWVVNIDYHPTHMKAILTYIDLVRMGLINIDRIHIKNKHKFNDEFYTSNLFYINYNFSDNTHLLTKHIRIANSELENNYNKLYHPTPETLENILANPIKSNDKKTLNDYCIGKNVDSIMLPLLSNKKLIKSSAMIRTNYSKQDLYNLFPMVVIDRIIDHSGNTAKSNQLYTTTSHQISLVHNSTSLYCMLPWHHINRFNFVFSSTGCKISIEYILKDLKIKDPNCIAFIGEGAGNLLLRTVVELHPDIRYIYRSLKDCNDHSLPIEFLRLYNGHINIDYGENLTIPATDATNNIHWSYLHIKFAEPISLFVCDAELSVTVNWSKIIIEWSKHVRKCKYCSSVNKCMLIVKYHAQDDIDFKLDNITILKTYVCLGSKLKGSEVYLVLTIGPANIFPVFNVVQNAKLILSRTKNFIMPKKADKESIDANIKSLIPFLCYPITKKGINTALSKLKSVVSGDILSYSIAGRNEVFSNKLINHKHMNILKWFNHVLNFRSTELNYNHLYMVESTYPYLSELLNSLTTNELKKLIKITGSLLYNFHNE
Sequence of recombinant RSV complex (P03421 whole entry, further chain): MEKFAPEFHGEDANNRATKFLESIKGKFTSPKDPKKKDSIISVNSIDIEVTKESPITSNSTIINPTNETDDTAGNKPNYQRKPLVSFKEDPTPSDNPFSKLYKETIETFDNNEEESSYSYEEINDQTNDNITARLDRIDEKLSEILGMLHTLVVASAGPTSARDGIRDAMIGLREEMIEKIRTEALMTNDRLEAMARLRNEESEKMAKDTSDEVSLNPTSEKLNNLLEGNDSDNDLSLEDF
Procedure, shortened: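 10 nM recombinant RSV polymerase complex in Tris-HCl pH 7.5, 6 mM MgCl2 with RNA oligonucleotide template and radionucleotides, incubated 2 h at 30 °C with increasing inhibitor concentrations. Reaction stopped with EDTA; radiolabeled RNA product counted by scintillation.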

RSV replicon = experiment: microbe, parasite or virus in culture; assay type: cell-based; conditions: human respiratory syncytial virus, read-out: EC50, the concentration of the drug required for reducing RSV replicon RNA by 50%
[3] = HEp-2, 120 h, read-out: 50% effective concentration (EC50), HEp-2 cells infected with RSV long strain, 5 days, CCK-8 readout
[4] = 50% cytotoxicity concentration (CC50)

Row | SMILES | EC50 [1, 3] | CC50 at 5 days [2, 4] | IC50 (recombinant RSV complex) | EC50 (RSV replicon) | EC50 ([1]; 120 h, read-out: 50% effective concentration (EC50), HEp-2 cells infected with RSV long strain, 5 days, CCK-8 readout) | CC50 at 5 days ([2]; no virus, 5 days, CCK-8 readout, Tables C and D list compounds by CC50 band)
1 | COc1cc(C(=O)NCC(O)(c2cc(C(C)(C)NC3COC3)cc(-c3ccc(F)c(Cl)c3)n2)C(F)(F)F)ccc1OC1CC1 (centres unmarked) [Compound 577] | < 1 µM | 10 to 100 µM | < 1 µM | < 1 µM | – | –
2 | COc1cc(C(=O)NCC(O)(c2cc(C(C)(C)N)c(OC)c(-c3ccc(F)cc3)n2)C(F)(F)F)ccc1OC1CC1 (centres unmarked) [Compound 594] | < 1 µM | 10 to 100 µM | < 1 µM | < 1 µM | – | –
3 | COc1cc(C(=O)NCC(O)(c2cc(C(C)(N)CF)cc(-c3ccc(F)cc3)n2)C(F)(F)F)ccc1OCCO (single isomer, unassigned) [Compound 664] | < 1 µM | 10 to 100 µM | < 1 µM | < 1 µM | – | –
4 | COc1cc(C(=O)NCC(O)(c2cc3c(c(-c4ccc(F)cc4)n2)OCC3(C)N)C(F)(F)F)ccc1OCCO (centres unmarked) [Compound 539] | < 1 µM | 10 to 100 µM | < 1 µM | < 1 µM | – | –
5 | COc1cc(C(=O)NCC(=O)c2cc3c(c(-c4ccc(F)c(Cl)c4)n2)OCCC3)ccc1OCCO [Compound 304] | < 1 µM | > 100 µM | < 1 µM | < 1 µM | – | –
6 | COc1cc(C(=O)NC[C@@](O)(c2cc(C(C)(C)N)cc(-c3ccc(F)c(Cl)c3)n2)C(F)(F)F)ccc1OC[C@@H](C)O [Compound 551] | < 1 µM | 10 to 100 µM | < 1 µM | < 1 µM | – | –
7 | COc1cc(C(=O)NCC(O)(c2cc(C(C)(C)NC(C)C)cc(-c3ccc(F)c(Cl)c3)n2)C(F)(F)F)ccc1OC1CC1 (centres unmarked) [Compound 392] | < 1 µM | 10 to 100 µM | < 1 µM | < 1 µM | – | –
8 | COc1cc(C(=O)NCC(O)(CNC2CC2)c2ccc(OC)c(-c3ccc(F)c(Cl)c3)n2)ccc1OCCO (centres unmarked) [Compound 189] | < 1 µM | > 100 µM | < 1 µM | < 1 µM | – | –
9 | COc1cc(C(=O)NCC(=O)c2cc3c(c(-c4ccc(F)c(Cl)c4)n2)OCCC3)ccc1OCCF [Compound 303] | < 1 µM | > 100 µM | < 1 µM | < 1 µM | – | –
10 | COc1cc(C(=O)NCC(O)(c2ccc(OC)c(-c3ccc(F)c(Cl)c3)n2)C(F)(F)F)ccc1OC1CCNC1=O (centres unmarked) [Compound 349] | < 1 µM | 10 to 100 µM | < 1 µM | < 1 µM | – | –
11 | COc1cc(C(=O)NCC(C)(O)c2cc3c(c(-c4ccc(F)c(Cl)c4)n2)OCC3(C)C)ccc1OCCO (racemic) [Compound 166] | < 1 µM | 10 to 100 µM | < 1 µM | < 1 µM | – | –
12 | COc1cc(C(=O)NCC(O)(c2cc(C(C)(C)NC(C)=O)cc(-c3ccc(F)c(Cl)c3)n2)C(F)(F)F)ccc1OCC(N)=O (centres unmarked) [Compound 612] | < 1 µM | > 100 µM | < 1 µM | < 1 µM | – | –
13 | COc1cc(C(=O)NCC(O)(c2cc(C(C)(N)C(N)=O)cc(-c3ccc(F)c(Cl)c3)n2)C(F)(F)F)ccc1OC1CC1 (centres unmarked) [Compound 536] | < 1 µM | 10 to 100 µM | < 1 µM | < 1 µM | – | –
14 | CNC(C)(C)c1cc(-c2ccc(F)c(Cl)c2)nc(C(O)(CNC(=O)c2ccc(O[C@H]3CCNC3=O)c(OC)c2)C(F)(F)F)c1 (some centres unmarked) [Compound 485] | < 1 µM | 10 to 100 µM | < 1 µM | < 1 µM | – | –
15 | COc1cc(C(=O)NCC(O)(c2cc3c(c(-c4ccc(F)c(Cl)c4)n2)OCC3(C)N)C(F)(F)F)ccc1OC1CC1 (centres unmarked) [Compound 483] | < 1 µM | 10 to 100 µM | < 1 µM | < 1 µM | – | –
16 | COc1cc(C(=O)NCC(O)(c2cc3c(c(-c4ccc(F)c(Cl)c4)n2)OCC3)C2CC2)ccc1OCCO (centres unmarked) [Compound 310] | – | 10 to 100 µM | < 1 µM | < 1 µM | < 1 µM | –
17 | COc1cc(C(=O)NCC(O)(c2cc(C(C)(C)N)cc(-c3ccc(F)cc3)n2)C(F)(F)F)ccc1OC1CC1 (centres unmarked) [Compound 318] | < 1 µM | 10 to 100 µM | < 1 µM | < 1 µM | – | –
18 | COc1cc(C(=O)NCC(O)(c2cc(C(C)(C)N)cc(-c3ccc(F)c(Cl)c3)n2)C(F)(F)F)ccc1OCC(C)(C)O (centres unmarked) [Compound 396] | < 1 µM | 10 to 100 µM | < 1 µM | < 1 µM | – | –
19 | COc1cc(C(=O)NCC(F)(c2ccc(OC)c(-c3ccc(F)c(Cl)c3)n2)C(F)(F)F)ccc1OC[C@@H](C)O (some centres unmarked) [Compound 342] | < 1 µM | 10 to 100 µM | < 1 µM | < 1 µM | – | –

Row | SMILES | EC50 [1, 3] | CC50 at 5 days [2, 4] | IC50 (recombinant RSV complex) | EC50 (RSV replicon) | EC50 ([1]; 120 h, read-out: 50% effective concentration (EC50), HEp-2 cells infected with RSV long strain, 5 days, CCK-8 readout) | CC50 at 5 days ([2]; no virus, 5 days, CCK-8 readout, Tables C and D list compounds by CC50 band)
20 | COc1cc(C(=O)NCC(O)(c2cc(C(C)(C)N)cc(-c3ccc(F)c(Cl)c3)n2)C(F)(F)F)ccc1OCC(N)=O (centres unmarked) [Compound 322] | < 1 µM | 10 to 100 µM | < 1 µM | < 1 µM | – | –
21 | COc1cc(C(=O)NCC(O)(c2cc(C(C)(C)N)cc(-c3ccc(F)c(Cl)c3)n2)C(F)(F)F)ccc1OCCO (centres unmarked) [Compound 489] | < 1 µM | 10 to 100 µM | < 1 µM | < 1 µM | – | –
22 | COc1cc(C(=O)NCC(C)(O)c2ccc(OC)c(-c3ccc(F)c(Cl)c3)n2)ccc1OCC(F)F (centres unmarked) [Compound 372] | < 1 µM | 10 to 100 µM | < 1 µM | < 1 µM | – | –
23 | COc1cc(C(=O)NCC(O)(c2cc(C(C)(C)NC3CCC3)cc(-c3ccc(F)c(Cl)c3)n2)C(F)(F)F)ccc1OC1CC1 (centres unmarked) [Compound 575] | < 1 µM | 10 to 100 µM | < 1 µM | < 1 µM | – | –
24 | COc1cc(C(=O)NCC(O)(c2ccc(OC)c(-c3ccc(F)c(Cl)c3)n2)C(F)(F)F)ccc1OCC(C)=O (centres unmarked) [Compound 362] | < 1 µM | 10 to 100 µM | < 1 µM | < 1 µM | – | –
25 | COc1cc(C(=O)NC[C@@](O)(c2cc(C(C)(C)N)cc(-c3ccc(F)c(Cl)c3)n2)C(F)(F)F)ccc1OCC(N)=O [Compound 547] | < 1 µM | 10 to 100 µM | < 1 µM | < 1 µM | – | –
26 | COc1ccc(C(=O)NCC(O)(c2ccc(OC)c(-c3ccc(F)c(Cl)c3)n2)C2CC2)cc1OC (centres unmarked) [Compound 359] | < 1 µM | 10 to 100 µM | < 1 µM | < 1 µM | – | –
27 | COc1cc(C(=O)NCC(O)(Cn2ccnc2)c2cc3c(c(-c4ccc(F)c(Cl)c4)n2)OCC3(C)C)cc2cccnc12 (centres unmarked) [Compound 226] | < 1 µM | 10 to 100 µM | < 1 µM | < 1 µM | – | –
28 | COc1cc(C(=O)NCC(O)(c2ccc(OC)c(-c3ccc(F)c(Cl)c3)n2)C(F)(F)F)ccc1OC1(CF)CC1 (centres unmarked) [Compound 248] | < 1 µM | > 100 µM | < 1 µM | < 1 µM | – | –
29 | COc1cc(C(=O)NCC(N)(c2ccc(OC)c(-c3ccc(F)c(Cl)c3)n2)C(F)(F)F)ccc1OC1CC1 (centres unmarked) [Compound 503] | < 1 µM | 10 to 100 µM | < 1 µM | < 1 µM | – | –
30 | CCNC(=O)NC(C)(C)c1cc(-c2ccc(F)c(Cl)c2)nc(C(O)(CNC(=O)c2ccc(OC3CC3)c(OC)c2)C(F)(F)F)c1 (centres unmarked) [Compound 387] | < 1 µM | > 100 µM | < 1 µM | < 1 µM | – | –
31 | CNC(C)c1cc(-c2ccc(F)c(Cl)c2)nc(C(O)(CNC(=O)c2ccc(OC3CC3)c(OC)c2)C(F)(F)F)c1 (centres unmarked) [Compound 466] | < 1 µM | 10 to 100 µM | < 1 µM | < 1 µM | – | –
32 | CCC(O)(CNC(=O)c1ccc(OCCF)c(OC)c1)c1ccc(OC)c(-c2ccc(F)c(Cl)c2)n1 (racemic) [Compound 122] | < 1 µM | 10 to 100 µM | < 1 µM | < 1 µM | – | –
33 | COc1cc(C(=O)NCC(O)(c2cc(C(C)(C)N)cc(-c3ccc(F)c(Cl)c3)n2)C(F)(F)F)ccc1OC[C@@H](C)O (some centres unmarked) [Compound 317] | < 1 µM | 10 to 100 µM | < 1 µM | < 1 µM | – | –
34 | COc1cc(C(=O)NCC(O)(c2cc(C(C)(C)NC(C)=O)cc(-c3ccc(F)cc3)n2)C(F)(F)F)ccc1OCC(N)=O (centres unmarked) [Compound 621] | < 1 µM | > 100 µM | < 1 µM | < 1 µM | – | –
35 | COc1cc(C(=O)NCC(O)(c2cc3c(c(-c4ccc(F)c(Cl)c4)n2)OCC3(C)C)C(F)(F)F)cc2cccnc12 (centres unmarked) [Compound 208] | < 1 µM | 10 to 100 µM | < 1 µM | < 1 µM | – | –
36 | COc1cc(C(=O)NCC(O)(c2cc(C(C)(C)N)cc(-c3ccc(F)cc3)n2)C(F)(F)F)ccc1OC1CC(O)C1 (centres unmarked) [Compound 596] | < 1 µM | 10 to 100 µM | < 1 µM | < 1 µM | – | –
37 | COc1cc(C(=O)NCC(O)(c2cc(C(C)(C)N)cc(-c3ccc(C#N)cc3)n2)C(F)(F)F)ccc1OC1CC1 (centres unmarked) [Compound 527] | < 1 µM | – | < 1 µM | < 1 µM | – | 10 to 100 µM
38 | COc1cc(C(=O)NCC(O)(c2ccc(OC)c(-c3ccc(F)c(Cl)c3)n2)C(F)F)ccc1OC[C@@H](C)O (some centres unmarked) [Compound 444] | < 1 µM | 10 to 100 µM | < 1 µM | < 1 µM | – | –
